# From PMC7576618 (British Journal of Clinical Pharmacology, 2020)
# Tested on: healthy subjects
# Experiment: SAD study: safety and tolerability
# Format: in vivo, human
# [1] = SAD Parts A and C, fasted conditions (total TS‐134)
# [2] = SAD Parts A and C, fed conditions (total TS‐134)
# [3] = SAD Parts A and C, 5 mg fasted (n = 6)
# [4] = SAD Parts A and C, 10 mg fasted (n = 6)
# [5] = SAD Parts A and C, 10 mg fed (n = 5)
# [6] = SAD Parts A and C, 20 mg fasted (n = 7)
# [7] = SAD Parts A and C, 20 mg fed (n = 3)
# [8] = SAD Parts A and C, Total TS‐134 fasted (n = 19)
# [9] = SAD Parts A and C, Total TS‐134 fed (n = 8)
smiles,measurement,setting,value
"CC(C)[C@@H]1CC[C@@H](C)C[C@H]1OC(=O)O[C@@H](C)OC(=O)[C@H]1[C@@H]2C[C@H](F)[C@@](N)(C(=O)O)[C@@H]21.O=S(=O)(O)c1ccccc1 [TS‐134, (1S,2S,3S,5R,6S)‐2‐amino‐3‐ fluoro‐6‐({(1S)‐1‐[({[(1R,2S,5R)‐5‐methyl‐2‐(propan‐2‐yl)cyclohexyl]oxy}carbonyl)oxy]ethoxy}carbonyl)bicyclo[3.1.0]hexane‐2‐carboxylic acid monobenzenesulfonate]",incidence of headache,"SAD Part B, fed 10 mg TS‐134",25.0%
same,incidence of post lumbar puncture syndrome,"SAD Part B, fed 10 mg TS‐134",37.5%
same,incidence of somnolence,"SAD Part B, fed 10 mg TS‐134",25.0%
same,incidence of vomiting,"SAD Part B, fed 10 mg TS‐134",25.0%
same,Abnormal dreams,"SAD Part B, 10 mg fed (n = 8)",0 Number of subjects (%)
same,Dizziness,"SAD Part B, 10 mg fed (n = 8)",0 Number of subjects (%)
same,Headache,"SAD Part B, 10 mg fed (n = 8)",2 (25.0) Number of subjects (%)
same,Insomnia,"SAD Part B, 10 mg fed (n = 8)",0 Number of subjects (%)
same,Nausea,"SAD Part B, 10 mg fed (n = 8)",0 Number of subjects (%)
same,Number of subjects with at least 1 TEAE,"SAD Part B, 10 mg fed (n = 8)",6 (75.0) Number of subjects (%)
same,Post lumbar puncture syndrome,"SAD Part B, 10 mg fed (n = 8)",3 (37.5) Number of subjects (%)
same,Pruritus,"SAD Part B, 10 mg fed (n = 8)",0 Number of subjects (%)
same,Somnolence,"SAD Part B, 10 mg fed (n = 8)",2 (25.0) Number of subjects (%)
same,Total number of TEAEs,"SAD Part B, 10 mg fed (n = 8)",10
same,Vomiting,"SAD Part B, 10 mg fed (n = 8)",2 (25.0) Number of subjects (%)
same,incidence of nausea,[1],21.1%
same,incidence of vomiting,[1],31.6%
same,incidence of headache,[2],25.0%
same,incidence of nausea,[2],25.0%
same,Abnormal dreams,[3],0 Number of subjects (%)
same,Dizziness,[3],0 Number of subjects (%)
same,Headache,[3],1 (16.7) Number of subjects (%)
same,Insomnia,[3],0 Number of subjects (%)
same,Nausea,[3],0 Number of subjects (%)
same,Number of subjects with at least 1 TEAE,[3],2 (33.3) Number of subjects (%)
same,Post lumbar puncture syndrome,[3],0 Number of subjects (%)
same,Pruritus,[3],0 Number of subjects (%)
same,Somnolence,[3],0 Number of subjects (%)
same,Total number of TEAEs,[3],2
same,Vomiting,[3],0 Number of subjects (%)
same,Abnormal dreams,[4],0 Number of subjects (%)
same,Dizziness,[4],0 Number of subjects (%)
same,Headache,[4],0 Number of subjects (%)
same,Insomnia,[4],0 Number of subjects (%)
same,Nausea,[4],1 (16.7) Number of subjects (%)
same,Number of subjects with at least 1 TEAE,[4],4 (66.7) Number of subjects (%)
same,Post lumbar puncture syndrome,[4],0 Number of subjects (%)
same,Pruritus,[4],0 Number of subjects (%)
same,Somnolence,[4],1 (16.7) Number of subjects (%)
same,Total number of TEAEs,[4],6
same,Vomiting,[4],2 (33.3) Number of subjects (%)
same,Abnormal dreams,[5],0 Number of subjects (%)
same,Dizziness,[5],0 Number of subjects (%)
same,Headache,[5],1 (20.0) Number of subjects (%)
same,Insomnia,[5],0 Number of subjects (%)
same,Nausea,[5],1 (20.0) Number of subjects (%)
same,Number of subjects with at least 1 TEAE,[5],3 (60.0) Number of subjects (%)
same,Post lumbar puncture syndrome,[5],0 Number of subjects (%)
same,Pruritus,[5],0 Number of subjects (%)
same,Somnolence,[5],0 Number of subjects (%)
same,Total number of TEAEs,[5],4
same,Vomiting,[5],1 (20.0) Number of subjects (%)
same,Abnormal dreams,[6],0 Number of subjects (%)
same,Dizziness,[6],0 Number of subjects (%)
same,Headache,[6],1 (14.3) Number of subjects (%)
same,Insomnia,[6],0 Number of subjects (%)
same,Nausea,[6],3 (42.9) Number of subjects (%)
same,Number of subjects with at least 1 TEAE,[6],5 (71.4) Number of subjects (%)
same,Post lumbar puncture syndrome,[6],0 Number of subjects (%)
same,Pruritus,[6],0 Number of subjects (%)
same,Somnolence,[6],0 Number of subjects (%)
same,Total number of TEAEs,[6],11
same,Vomiting,[6],4 (57.1) Number of subjects (%)
same,Abnormal dreams,[7],0 Number of subjects (%)
same,Dizziness,[7],0 Number of subjects (%)
same,Headache,[7],1 (33.3) Number of subjects (%)
same,Insomnia,[7],0 Number of subjects (%)
same,Nausea,[7],1 (33.3) Number of subjects (%)
same,Number of subjects with at least 1 TEAE,[7],1 (33.3) Number of subjects (%)
same,Post lumbar puncture syndrome,[7],0 Number of subjects (%)
same,Pruritus,[7],0 Number of subjects (%)
same,Somnolence,[7],0 Number of subjects (%)
same,Total number of TEAEs,[7],3
same,Vomiting,[7],0 Number of subjects (%)
same,Abnormal dreams,[8],0 Number of subjects (%)
same,Dizziness,[8],0 Number of subjects (%)
same,Headache,[8],2 (10.5) Number of subjects (%)
same,Insomnia,[8],0 Number of subjects (%)
same,Nausea,[8],4 (21.1) Number of subjects (%)
same,Number of subjects with at least 1 TEAE,[8],11(57.9) Number of subjects (%)
same,Post lumbar puncture syndrome,[8],0 Number of subjects (%)
same,Pruritus,[8],0 Number of subjects (%)
same,Somnolence,[8],1 (5.3) Number of subjects (%)
same,Total number of TEAEs,[8],19
same,Vomiting,[8],6 (31.6) Number of subjects (%)
same,Abnormal dreams,[9],0 Number of subjects (%)
same,Dizziness,[9],0 Number of subjects (%)
same,Headache,[9],2 (25.0) Number of subjects (%)
same,Insomnia,[9],0 Number of subjects (%)
same,Nausea,[9],2 (25.0) Number of subjects (%)
same,Number of subjects with at least 1 TEAE,[9],4 (50.0) Number of subjects (%)
same,Post lumbar puncture syndrome,[9],0 Number of subjects (%)
same,Pruritus,[9],0 Number of subjects (%)
